# Patent publication US5856166A, “Streptomyces proteases and methods for improved secretion of recombinantly-expressed proteins” (Cangene Corporation, priority 1994, dated 1999)
# Like-named read-outs stand apart in the source and are kept apart here. Where a SMILES comes first, the peptide text is derived from it. [ ]: non-standard residue; d: D form. The star is where a group is joined. Sta = CC(C)C[C@H](N)[C@@H](O)CC(=O)O; pNA = O=[N+]([O-])c1ccc(N*)cc1; AMC = Cc1cc(=O)oc2cc(N*)ccc12; Isovaleryl = CC(C)CC(=O)*; βNA = c1ccc2cc(N*)ccc2c1; Boc = CC(C)(C)OC(=O)*
# Experiments:
# [1] = target: T1, Tap (tripeptidyl aminopeptidase) (Streptomyces lividans, UniProt Q54410); assay: Inhibition of TAP in the APA-pNA assay (protease inhibitor survey, Table I); format: biochemical, S. lividans 66; settings: for remaining activity at 100 µM / remaining activity at 1000 µM / remaining activity at 10000 µM: read-out: Residual Activity
# T1 construct: An autolytic tripeptide cleavage removing APA after signal peptide removal would yield the N-terminal found for the secreted protease; made in house; host or cells: Streptomyces lividans 66 (wild-type strain, native secreted enzyme purified from the broth)
# T1 sequence (Q54410 40-537): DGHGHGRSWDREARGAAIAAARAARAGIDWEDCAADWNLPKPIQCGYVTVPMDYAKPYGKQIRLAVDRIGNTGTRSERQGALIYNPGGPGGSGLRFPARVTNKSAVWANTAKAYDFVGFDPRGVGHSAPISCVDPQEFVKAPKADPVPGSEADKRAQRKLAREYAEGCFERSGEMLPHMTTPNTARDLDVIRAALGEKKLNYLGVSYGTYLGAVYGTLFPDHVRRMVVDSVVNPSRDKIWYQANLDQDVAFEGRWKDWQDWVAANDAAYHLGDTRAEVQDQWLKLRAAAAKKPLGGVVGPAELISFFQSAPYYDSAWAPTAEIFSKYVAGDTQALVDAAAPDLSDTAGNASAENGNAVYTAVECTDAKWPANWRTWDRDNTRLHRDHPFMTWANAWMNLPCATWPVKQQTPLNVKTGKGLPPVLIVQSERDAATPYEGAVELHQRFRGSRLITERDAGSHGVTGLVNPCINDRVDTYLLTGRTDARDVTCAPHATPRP
# Protocol: The protease and inhibitor were preincubated for 15 minutes at 22° C. Substrate was added and the mixture was incubated at 37° C. Activity was measured by monitoring the change in absorbance at λ=405 nm.
# (§1) The assay was conducted in a 96 well microtiter plate. To each well in the assay, 50 ul 100 mM Tris-HCl, pH 8.0, were added followed by 25 ul 3.2 mM APA-pNA. 25 ul of Tap were added to the wells and the absorbance was read at 405 nm. The assays were incubated at 37° C. for 2 hours. The absorbance was read at 405 nm. The activity (release of p-nitroaniline) was calculated from the change in absorbance.
# [2] = target: T1, Tap (tripeptidyl aminopeptidase); assay: Release of reporter group from synthetic substrates by pure Tap; format: biochemical, S. lividans 66
# Protocol: The enzyme was also active when APM-pNA, APA-AMC, APS-bNA, GPL-bNA, and SPA-bNA were used as substrates. […] The enzyme only released the reporter group from substrates with a free amino terminal.
# as §1
# [3] = inhibitor 0.1 mM, preincubated 15 minutes at 22° C., substrate APA-pNA, enzyme only = 100
# [4] = inhibitor 10 mM, preincubated 15 minutes at 22° C., substrate APA-pNA, enzyme only = 100
# [5] = inhibitor 1.0 mM, preincubated 15 minutes at 22° C., substrate APA-pNA, enzyme only = 100
Compound,release of reporter group when used as substrate of Tap [2],also measured
CC(C)C[C@H](NC(=O)N[C@H](C(=O)N[C@@H](CCC(N)=O)C(=O)N[C@@H](C)C=O)[C@@H]1CCNC(=N)N1)C(=O)O [Elastatinal],,"remaining activity at 100 µM [1, 3]: 97%"
"C[C@H](NC(=O)OC(C)(C)C)C(=O)N[C@@H](C)C(=O)N1CCC[C@H]1C(=O)N[C@@H](C)C(=O)Nc1ccc([N+](=O)[O-])cc1 [Boc-AAPA-pNA, N-t-butoxycarbonyl L-alanyl-L-alanyl-L-prolyl-L-alanine p-nitroanilide] (Boc-AAPA-pNA)",did not release the reporter group,
"NCC(=O)N1CCC[C@H]1C(=O)Nc1ccc([N+](=O)[O-])cc1 [GP-pNA, Glycyl-L-proline p-nitroanilide] (H-Gly-Pro-pNA)",did not release the reporter group,
"O=C(O)CN(CCN(CC(=O)O)CC(=O)O)CC(=O)O [EDTA, Ethylenediaminetetraacetic acid]",,remaining activity at 1000 µM [1]: 95%; remaining activity at 10000 µM [1]: 95%
"C[C@H](N)C(=O)N[C@@H](C)C(=O)N1CCC[C@H]1C(=O)N[C@@H](C)C(=O)Nc1ccc([N+](=O)[O-])cc1 [AAPA-pNA, L-alanyl-L-alanyl-L-prolyl-L-analine p-nitroanilide] (H-AAPA-pNA)",did not release the reporter group,
"C[C@H](NC(=O)[C@@H]1CCCN1C(=O)[C@H](C)NC(=O)OC(C)(C)C)C(=O)N[C@@H](CCCNC(=N)N)C(=O)N[C@@H](CO)C(=O)N1CCC[C@H]1C(=O)N[C@@H](C)C(=O)Nc1ccc2ccccc2c1 [Boc-APARSPA-bNA, L-alanyl-L-prolyl-L-analyl-L-arginyl-L-seryl-L-prolyl-L-alanine beta-naphthylamide] (Boc-APARSPA-βNA)",did not release the reporter group,
"C[C@H](N)C(=O)N[C@@H](C)C(=O)Nc1ccc([N+](=O)[O-])cc1 [AA-pNA, L-alanyl-L-alanine p-nitroanilide] (H-Ala-Ala-pNA)",did not release the reporter group,
"N[C@@H](CO)C(=O)Nc1ccc2ccccc2c1 [S-bNA, L-serine beta-naphthylamide]",did not release the reporter group,
N=C(N)c1ccccc1 [Benzamidine],,"remaining activity at 10000 µM [1, 4]: 94%"
N-benzoyl-L-alanyl-glycyl-L-arginine p-nitroanilide [N-Bz-VGR-pNA],did not release the reporter group,
"C[C@H](N)C(=O)Nc1ccc([N+](=O)[O-])cc1 [A-pNA, L-alanine p-nitroanilide]",did not release the reporter group,
"C[C@H](N)C(=O)N1CCC[C@H]1C(=O)N[C@@H](CO)C(=O)Nc1ccc2ccccc2c1 [APS-bNA, L-alanyl-L-prolyl-L-serine beta-naphthylamide] (H-Ala-Pro-Ser-βNA)",active,
Chymostatin,,"Residual Activity [1, 3]: 98"
[Ca+2].[Cl-].[Cl-] [CaCl2],,"Residual Activity [1, 5]: 96; Residual Activity [1, 4]: 97"
CC(C)CC(=O)N[C@H](C(=O)N[C@H](C(=O)N[C@@H](CC(C)C)[C@@H](O)CC(=O)N[C@@H](C)C(=O)N[C@@H](CC(C)C)[C@@H](O)CC(=O)O)C(C)C)C(C)C [Pepstatin] (Isovaleryl-VV[Sta]A[Sta]-OH),,"remaining activity at 100 µM [1, 3]: 95%"
N=C(N)NCCC[C@H](NC(=O)c1ccccc1)C(=O)Nc1ccc([N+](=O)[O-])cc1 [N-Bz-R-pNA],did not release the reporter group,
"N=C(N)NCCC[C@H](N)C(=O)Nc1ccc([N+](=O)[O-])cc1 [R-pNA, L-arginine p-nitroanilide]",did not release the reporter group,
"C[C@H](NC(=O)[C@@H]1CCCN1C(=O)[C@@H](N)CO)C(=O)Nc1ccc2ccccc2c1 [SPA-bNA, L-seryl-L-prolyl-L-alanine beta-naphthylamide] (H-Ser-Pro-Ala-βNA)",active,
"N=C(N)NCCC[C@H](NC(=O)[C@H](Cc1ccccc1)NC(=O)[C@H]1CCCN1)C(=O)Nc1ccc([N+](=O)[O-])cc1 [D-PFR-pNA, D-prolyl-L-phenylalanyl-L-arginine p-nitroanilide] (H-[dP]-Phe-Arg-pNA)",did not release the reporter group,
[Cl-].[Cl-].[Co+2] [CoCl2],,"Residual Activity [1, 5]: 98; Residual Activity [1, 4]: 97"
OC(CS)C(O)CS (stereo not drawn) [DTT],,"remaining activity at 1000 µM [1, 5]: 86%"
"CC(C)C[C@H](N)C(=O)Nc1ccc([N+](=O)[O-])cc1 [L-pNA, L-leucine p-nitroanilide]",did not release the reporter group,
"CC(=O)N[C@@H](C)C(=O)N1CCC[C@H]1C(=O)N[C@@H](C)C(=O)Nc1ccc([N+](=O)[O-])cc1 [N-Ac-APA-pNA, N-acetyl-L-alanyl-L-prolyl-L-alanine p-nitroanilide] (Ac-Ala-Pro-Ala-pNA)",did not release the reporter group,
"CC(C)C[C@H](NC(=O)[C@@H]1CCCN1C(=O)CN)C(=O)Nc1ccc2ccccc2c1 [GPL-bNA, Glycyl-L-prolyl-L-leucine beta-napthylamide] (H-Gly-Pro-Leu-βNA)",active,
"Cc1cc(=O)oc2cc(NC(=O)[C@H](C)NC(=O)[C@@H]3CCCN3C(=O)[C@H](C)N)ccc12 [APA-AMC, L-alanyl-L-prolyl-L-alanine 7-amino-4-methylcoumarin] (H-Ala-Pro-Ala-{AMC})",active,
"C[C@H](N)C(=O)N1CCC[C@H]1C(=O)N[C@@H](C)C(=O)Nc1ccc([N+](=O)[O-])cc1 [APApNA, L-alanyl-L-prolyl-L-alanine p-nitroanilide] (H-Ala-Pro-Ala-pNA)",releases p-nitroaniline,
"CSCC[C@H](NC(=O)[C@@H]1CCCN1C(=O)[C@H](C)N)C(=O)Nc1ccc([N+](=O)[O-])cc1 [APM-pNA, L-alanyl-L-prolyl-L-methione p-nitroanilide] (H-Ala-Pro-Met-pNA)",active,
[Cl][Hg][Cl] [HgCl1],,"Residual Activity [1, 3]: 99; Residual Activity [1, 5]: 93"
"O=C(Nc1ccc([N+](=O)[O-])cc1)[C@@H]1CCCN1 [P-pNA, L-proline p-nitroanilide]",did not release the reporter group,
